Our source for the GI50 and TGI values is PubChem BioAssay (NCI).

SMILES strings stand for the structures.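 Protocol summary: plate cells (96-well), add compound at 5 concentrations, incubate 48 h, interpolate endpoints linearly. GI50 marks 50% less growth. TGI denotes the concentration required for complete inhibition of growth.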

Among the test systems are U251 CNS; COLO 205 colon; TK-10 renal; HCT-116 colon; HT29 colon; T-47D breast; HCT-15 colon; DU-145 prostate; RPMI-8226 leukemia; OVCAR-3 ovarian.
Holding throughout (assay): NCI-60 cell line screen, 48 h

As for `c1ccc2c3c([nH]c2c1)C(c1ccc(C2NCCc4c2[nH]c2ccccc42)cc1)NCC3` (stereo not given), the GI50 in the assay on U251 CNS was 0.321 µM; with COLO 205 colon it was 0.204 µM; with TK-10 renal, 1.98 µM; in the assay on HCT-116 colon, 0.17 µM; with HT29 colon, 0.28 µM; in the assay with T-47D breast it was 1.31 µM. For the same compound, the GI50 with HCT-15 colon was 0.429 µM; in the assay with DU-145 prostate it was 0.749 µM; in the assay on RPMI-8226 leukemia it was 0.34 µM; in the assay with OVCAR-3 ovarian, 1.24 µM. In addition, the TGI in the assay with U251 CNS was determined as 1.1 µM; with COLO 205 colon it was 0.459 µM; with TK-10 renal, 4.09 µM; in the assay with HCT-116 colon it was 0.335 µM; in the assay on HT29 colon it was 0.735 µM; with T-47D breast it was 3.06 µM. In addition, the TGI in the assay with HCT-15 colon was 1.78 µM; with DU-145 prostate it was 2.13 µM; with RPMI-8226 leukemia, 1.09 µM; in the assay with OVCAR-3 ovarian, 2.6 µM.

`C=C1C(=O)OC2/C=C(/C)C(OC(C)=O)C/C=C(\C)C(OC(=O)C3(C)OC3C)C(O)C12` (stereo not given): the TGI in the assay on U251 CNS, in the assay on COLO 205 colon, in the assay with TK-10 renal, with HCT-116 colon, in the assay on HT29 colon and in the assay on T-47D breast was over 100 µM each time. Further, the TGI with HCT-15 colon, with DU-145 prostate, in the assay with RPMI-8226 leukemia and with OVCAR-3 ovarian was over 100 µM each time.

For the compound `CCC(=O)c1c(C(F)(F)F)n([O-])c2cc(F)c(F)cc2[n+]1=O`, the GI50 is 1.43 µM in the assay with U251 CNS; 0.466 µM in the assay with COLO 205 colon; 1.05 µM in the assay on TK-10 renal; 0.366 µM in the assay with HCT-116 colon; 0.228 µM in the assay on HT29 colon; 0.57 µM with T-47D breast. The GI50 was 1.91 µM in the assay on HCT-15 colon, 0.832 µM in the assay with DU-145 prostate, 0.394 µM with RPMI-8226 leukemia and 0.296 µM in the assay with OVCAR-3 ovarian. Further, the TGI worked out at 3.39 µM in the assay with U251 CNS; 3.16 µM in the assay on COLO 205 colon; 2.39 µM with TK-10 renal; 1.51 µM in the assay on HCT-116 colon; 0.492 µM in the assay on HT29 colon; 7.04 µM in the assay with T-47D breast. Also, the TGI in the assay on HCT-15 colon was over 100 µM; in the assay on DU-145 prostate, 2.33 µM; in the assay with RPMI-8226 leukemia it was 1.6 µM; in the assay on OVCAR-3 ovarian, 0.836 µM.

Turning to `COc1ccc(N=N/C(C(=O)C(F)(F)F)=C(\O)c2ccc(Cl)cc2)cc1`, the GI50 with U251 CNS is 4.55 µM; in the assay on COLO 205 colon it was 11.3 µM; in the assay with TK-10 renal, 18.3 µM; in the assay with HCT-116 colon, 6.64 µM; with HT29 colon, 4.6 µM; in the assay with T-47D breast, 5.98 µM. Moreover, the GI50 in the assay on HCT-15 colon is 4.68 µM; with DU-145 prostate, 14.6 µM; in the assay with RPMI-8226 leukemia it was 5.96 µM; in the assay with OVCAR-3 ovarian, 7.21 µM. The TGI was 27.8 µM in the assay with U251 CNS; 25.1 µM in the assay with COLO 205 colon; 61.4 µM in the assay with TK-10 renal; 26.2 µM in the assay on HCT-116 colon; 17.2 µM in the assay with HT29 colon; 64.9 µM with T-47D breast. Moreover, the TGI with HCT-15 colon was over 100 µM; in the assay on DU-145 prostate, 70.8 µM; in the assay with RPMI-8226 leukemia, 47.3 µM; with OVCAR-3 ovarian, 35.4 µM.

Turning to `CN(C)CCNC(=O)c1cccc2c1Oc1c(cccc1[N+](=O)[O-])O2`, the TGI amounted to 10.4 µM in the assay with U251 CNS; 4.28 µM in the assay with COLO 205 colon; 6.08 µM in the assay with TK-10 renal; 3.4 µM with HCT-116 colon; 5.78 µM with HT29 colon; 1.93 µM in the assay with T-47D breast. The TGI in the assay with HCT-15 colon is 3.89 µM; in the assay with DU-145 prostate, 5.37 µM; in the assay on RPMI-8226 leukemia, over 100 µM; in the assay with OVCAR-3 ovarian it was 13.1 µM.

In the case of `CN1C(=O)C2(c3ccccc31)N(c1ccc(Cl)cc1)C(=O)C2(c1ccccc1)c1ccccc1` (stereo not given), the GI50 was 45.5 µM in the assay with U251 CNS; 37.6 µM with COLO 205 colon; over 100 µM in the assay on TK-10 renal; 9.57 µM with HCT-116 colon; 11 µM in the assay on HT29 colon; 6.29 µM with T-47D breast. In addition, the GI50 with HCT-15 colon was over 100 µM; in the assay on DU-145 prostate it was 99 µM; with RPMI-8226 leukemia it was 6.25 µM; with OVCAR-3 ovarian it was 20.2 µM. Also, the TGI in the assay on U251 CNS, with COLO 205 colon, with TK-10 renal, in the assay with HCT-116 colon, with HT29 colon and in the assay with T-47D breast was over 100 µM in each case. Further, the TGI in the assay on HCT-15 colon, in the assay on DU-145 prostate, with RPMI-8226 leukemia and in the assay on OVCAR-3 ovarian was over 100 µM each time.

On to `CC1=C(C(=O)Nc2ccc(Cl)c(C(=O)OC(C)C)c2)SCCO1`, for which the TGI with U251 CNS is 81.3 µM; in the assay with COLO 205 colon it was 60 µM; with TK-10 renal it was over 100 µM; with HCT-116 colon, over 77.4 µM; in the assay on HT29 colon, 50.8 µM; in the assay on T-47D breast, over 100 µM. The TGI was over 100 µM in the assay with HCT-15 colon, over 100 µM in the assay with DU-145 prostate, 67.7 µM with RPMI-8226 leukemia and over 100 µM in the assay on OVCAR-3 ovarian.
